From patent US20060257987A1, “Ppar modulators” (priority 2003, published 2006) come the findings set out here.

pEC50: −log10 of the molar value.

One test deals with T1, huPPARγ (Homo sapiens, UniProt P37231).
T1 construct: expressed in transfected cells; host or cells: CV-1 cells
T1 sequence (P37231 1-505): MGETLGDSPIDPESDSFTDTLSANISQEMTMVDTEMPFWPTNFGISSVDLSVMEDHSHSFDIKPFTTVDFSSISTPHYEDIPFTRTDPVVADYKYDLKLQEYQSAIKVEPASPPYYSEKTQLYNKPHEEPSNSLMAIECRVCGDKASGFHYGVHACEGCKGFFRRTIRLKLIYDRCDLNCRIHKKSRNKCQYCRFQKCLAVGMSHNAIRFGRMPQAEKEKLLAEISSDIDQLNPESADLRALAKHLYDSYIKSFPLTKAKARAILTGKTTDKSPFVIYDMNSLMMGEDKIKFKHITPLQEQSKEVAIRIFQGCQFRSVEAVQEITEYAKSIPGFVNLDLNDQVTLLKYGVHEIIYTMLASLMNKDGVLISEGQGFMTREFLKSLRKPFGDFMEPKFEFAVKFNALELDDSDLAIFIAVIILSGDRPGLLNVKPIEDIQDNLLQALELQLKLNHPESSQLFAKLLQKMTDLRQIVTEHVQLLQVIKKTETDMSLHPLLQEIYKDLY
T1 sequence (P19793 1-462 partner): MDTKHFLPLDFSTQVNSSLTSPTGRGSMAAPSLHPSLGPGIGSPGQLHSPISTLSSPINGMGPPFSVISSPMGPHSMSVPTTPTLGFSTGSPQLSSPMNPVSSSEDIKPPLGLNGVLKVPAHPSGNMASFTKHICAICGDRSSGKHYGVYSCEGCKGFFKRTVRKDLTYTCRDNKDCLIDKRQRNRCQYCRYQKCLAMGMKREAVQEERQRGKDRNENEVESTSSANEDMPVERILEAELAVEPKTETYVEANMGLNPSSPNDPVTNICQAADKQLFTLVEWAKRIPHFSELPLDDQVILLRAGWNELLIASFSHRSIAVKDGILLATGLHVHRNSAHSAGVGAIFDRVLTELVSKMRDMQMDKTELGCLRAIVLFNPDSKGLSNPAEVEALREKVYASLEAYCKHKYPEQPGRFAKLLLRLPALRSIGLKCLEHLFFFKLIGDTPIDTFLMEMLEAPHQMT
The experiment in a line: Cotransfection assay in CV-1 cells, AOX PPRE luciferase reporter. The test is classed as cell-based. A general note: In a reporter assay the amount or activity of a reporter protein is the signal.

Another test addresses T2, huPPARα (Homo sapiens, UniProt Q07869).
T2 sequence (Q07869 200-468 limits assumed): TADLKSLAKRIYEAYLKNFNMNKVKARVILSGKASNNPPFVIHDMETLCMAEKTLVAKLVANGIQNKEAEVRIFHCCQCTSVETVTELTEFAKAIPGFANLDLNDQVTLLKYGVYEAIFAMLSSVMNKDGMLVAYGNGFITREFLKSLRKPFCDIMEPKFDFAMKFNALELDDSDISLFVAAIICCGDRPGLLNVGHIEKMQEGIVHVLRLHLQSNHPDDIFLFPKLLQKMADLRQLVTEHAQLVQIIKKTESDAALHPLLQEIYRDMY
The experiment in a line: Cotransfection assay in CV-1 cells, GAL4 chimeric system, luciferase reporter.

A further test has as its target T3, huPPARδ (Homo sapiens, UniProt Q03181).
T3 sequence (Q03181 211-441 limits assumed): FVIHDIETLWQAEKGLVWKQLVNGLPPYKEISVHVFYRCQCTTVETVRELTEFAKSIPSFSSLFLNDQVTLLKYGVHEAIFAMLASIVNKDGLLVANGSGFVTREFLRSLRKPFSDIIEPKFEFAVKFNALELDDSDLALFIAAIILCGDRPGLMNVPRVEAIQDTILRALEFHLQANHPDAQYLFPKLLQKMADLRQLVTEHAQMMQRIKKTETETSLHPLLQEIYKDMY
Described as above.

For the next test, the system named is hu apoAI transgenic mice. The experiment in a line: Evaluation of triglyceride and cholesterol level in HuapoAI transgenic mice. The test is classed as in vivo. To be noted: 100 mg/kg oral gavage daily for 7 days.

Experimental for huPPARα: (§1) Cotransfection assays are carried out in CV-1 cells. The reporter plasmid contains an acylCoA oxidase (AOX) PPRE and TK promoter upstream of the luciferase reporter cDNA. Appropriate PPARs and RXRα are constitutively expressed using plasmids containing the CMV promoter. Since for PPARα and PPARβ, interference by endogenous PPARγ in CV-1 cells is an issue, in order to eliminate such interference, a GAL4 chimeric system is used in which the DNA binding domain of the transfected PPAR is replaced by that of GAL4, and the GAL4 response element is utilized in place of the AOX PPRE. Receptor activation by compounds of the present invention is determined relative to PPARα agonist and PPARγ agonist reference molecules to obtain percent efficacies. EC50 values are determined by computer fit to a concentration-response curve. […] In some cases, a single high concentration of agonist (10 μM) was used.
Experimental for huPPARγ: as §1
Experimental for huPPARδ: as §1

As to `CCc1ccc(OC(C)CCSc2ccc(OCC(=O)O)c(C)c2)c(C(=O)c2ccccc2)c1` (centres unmarked) [S/O], the Emax at huPPARγ (CV-1, Table 4, percent efficacy relative to reference agonist, read-out: Eff % γ) is 63%; on huPPARα (CV-1, read-out: Eff % α) it was 39%; at huPPARδ (CV-1, read-out: Eff % δ) it was 112%. The negative logarithm of the EC50 (pEC50) is 6.58 on huPPARγ (Table 4, effect of X/Y, scaffold drawing 255); 5.54 on huPPARα; 7.64 at huPPARδ.

Take `CC(C)OC(=O)C(C)(C)Oc1ccc(C(=O)c2ccc(Cl)cc2)cc1` [fenofibrate]: the “high-density lipoprotein cholesterol (HDLc) peak area” value in the test with hu apoAI transgenic mice (FPLC of pooled sera, vehicle 47 to 62 v-sec) was 68-96 v-sec. Also, the “mean percent increase of HDLc” value in the test on hu apoAI transgenic mice (FPLC of pooled sera, versus vehicle) is listed as 48%. In the test with hu apoAI transgenic mice (serum, vehicle about 60 to 80 mg/dl), this compound came in with an average triglycerides values of 33 to 58 mg/dL. For the same compound, in the test with hu apoAI transgenic mice (versus vehicle), the “mean elevation of total serum cholesterol” value is listed as 41% and the “mean reduction of triglycerides” value came to 37%.

The term pEC50 denotes the negative decadic logarithm of the EC50, by convention in mol/L.
